Experimental data taken from the NIST ThermoML archive (doi:10.1021/je900266h).
± gives the expanded uncertainty stated by the source.

Legend:
[1] = refractive index (Na D-line) (dimensionless); mn = molality of the nth substance listed, in mol/kg; details: 101 kPa, Liquid, Standard Abbe refractometry
[2] = refractive index (Na D-line) (dimensionless); details: 101.33 kPa, Liquid, Standard Abbe refractometry
[3] = refractive index (Na D-line) (dimensionless); wn = mass fraction of the nth substance listed; details: 101 kPa, Liquid, Standard Abbe refractometry, w2 = 0

For `O=S(=O)([O-])[O-].[Mg+2]` [magnesium sulfate] + O, which refractive index ([1]; 288.15 K, m1 = 0.2096) is on record?
Its refractive index is 1.33858 ± 0.00041.

What about the refractive index ([1]; 288.15 K, m1 = 0.3448) of the same compound?
The refractive index was 1.34163 ± 0.00041.

What about the refractive index ([1]; 288.15 K, m1 = 0.5911) of the same compound?
The refractive index was 1.3471 ± 0.00041.

What about the refractive index ([1]; 288.15 K, m1 = 0.7832) of the same compound?
The refractive index was 1.35115 ± 0.00041.

What about the refractive index ([1]; 288.15 K, m1 = 0.9997) of the same compound?
Its refractive index is 1.35558 ± 0.00041.

What about the refractive index ([1]; 288.15 K, m1 = 1.19) of the same compound?
Its refractive index is 1.35934 ± 0.00041.

What about the refractive index ([1]; 288.15 K, m1 = 1.379) of the same compound?
Its refractive index is 1.36292 ± 0.00042.

And the refractive index ([1]; 288.15 K, m1 = 1.621)?
Its refractive index is 1.3674 ± 0.00042.

And the refractive index ([1]; 288.15 K, m1 = 1.867)?
The refractive index was 1.37176 ± 0.00042.

And the refractive index ([1]; 288.15 K, m1 = 2.12)?
Its refractive index is 1.376 ± 0.00042.

And the refractive index ([1]; 288.15 K, m1 = 2.36)?
Its refractive index is 1.37993 ± 0.00042.

What about the refractive index ([1]; 288.15 K, m1 = 2.592) of the same compound?
Its refractive index is 1.38344 ± 0.00042.

And the refractive index ([1]; 298.15 K, m1 = 0.2096)?
Its refractive index is 1.33762 ± 0.00041.

What about the refractive index ([1]; 298.15 K, m1 = 0.3448) of the same compound?
The refractive index was 1.34072 ± 0.00041.

And the refractive index ([1]; 298.15 K, m1 = 0.5911)?
Its refractive index is 1.34594 ± 0.00041.

And the refractive index ([1]; 298.15 K, m1 = 0.7832)?
The refractive index was 1.35009 ± 0.00041.

And the refractive index ([1]; 298.15 K, m1 = 0.9997)?
The refractive index was 1.35438 ± 0.00041.

What about the refractive index ([1]; 298.15 K, m1 = 1.19) of the same compound?
Its refractive index is 1.3581 ± 0.00042.

What about the refractive index ([1]; 298.15 K, m1 = 1.379) of the same compound?
The refractive index was 1.36174 ± 0.00042.

And the refractive index ([1]; 298.15 K, m1 = 1.621)?
The refractive index was 1.36613 ± 0.00042.

What about the refractive index ([1]; 298.15 K, m1 = 1.867) of the same compound?
Its refractive index is 1.37039 ± 0.00042.

What about the refractive index ([1]; 298.15 K, m1 = 2.12) of the same compound?
Its refractive index is 1.37469 ± 0.00042.

And the refractive index ([1]; 298.15 K, m1 = 2.36)?
The refractive index was 1.37853 ± 0.00042.

What about the refractive index ([1]; 298.15 K, m1 = 2.592) of the same compound?
Its refractive index is 1.38211 ± 0.00042.

What about the refractive index ([1]; 298.15 K, m1 = 2.859) of the same compound?
The refractive index was 1.38613 ± 0.00042.

What about the refractive index ([1]; 298.15 K, m1 = 3.087) of the same compound?
The refractive index was 1.38927 ± 0.00042.

What about the refractive index ([1]; 308.15 K, m1 = 0.2096) of the same compound?
The refractive index was 1.33629 ± 0.00041.

And the refractive index ([1]; 308.15 K, m1 = 0.3448)?
Its refractive index is 1.3393 ± 0.00041.

And the refractive index ([1]; 308.15 K, m1 = 0.5911)?
The refractive index was 1.34463 ± 0.00041.

And the refractive index ([1]; 308.15 K, m1 = 0.7832)?
Its refractive index is 1.34872 ± 0.00041.

What about the refractive index ([1]; 308.15 K, m1 = 0.9997) of the same compound?
Its refractive index is 1.35295 ± 0.00041.

What about the refractive index ([1]; 308.15 K, m1 = 1.19) of the same compound?
The refractive index was 1.35667 ± 0.00042.

What about the refractive index ([1]; 308.15 K, m1 = 1.379) of the same compound?
Its refractive index is 1.36037 ± 0.00042.

And the refractive index ([1]; 308.15 K, m1 = 1.621)?
The refractive index was 1.36468 ± 0.00042.

And the refractive index ([1]; 308.15 K, m1 = 1.867)?
The refractive index was 1.36899 ± 0.00042.

What about the refractive index ([1]; 308.15 K, m1 = 2.12) of the same compound?
Its refractive index is 1.3732 ± 0.00042.

And the refractive index ([1]; 308.15 K, m1 = 2.36)?
The refractive index was 1.37709 ± 0.00042.

And the refractive index ([1]; 308.15 K, m1 = 2.592)?
The refractive index was 1.38069 ± 0.00042.

What about the refractive index ([1]; 308.15 K, m1 = 2.859) of the same compound?
The refractive index was 1.38461 ± 0.00042.

And the refractive index ([1]; 308.15 K, m1 = 3.087)?
The refractive index was 1.3878 ± 0.00042.

And the refractive index ([1]; 308.15 K, m1 = 3.347)?
The refractive index was 1.39151 ± 0.00042.

And the refractive index ([1]; 308.15 K, m1 = 3.579)?
Its refractive index is 1.3945 ± 0.00042.

And the refractive index ([1]; 318.15 K, m1 = 0.2096)?
Its refractive index is 1.33491 ± 0.00041.

What about the refractive index ([1]; 318.15 K, m1 = 0.3448) of the same compound?
The refractive index was 1.33803 ± 0.00041.

What about the refractive index ([1]; 318.15 K, m1 = 0.5911) of the same compound?
The refractive index was 1.34335 ± 0.00041.

And the refractive index ([1]; 318.15 K, m1 = 0.7832)?
Its refractive index is 1.34735 ± 0.00041.

And the refractive index ([1]; 318.15 K, m1 = 0.9997)?
The refractive index was 1.3516 ± 0.00041.

And the refractive index ([1]; 318.15 K, m1 = 1.19)?
The refractive index was 1.35532 ± 0.00041.

And the refractive index ([1]; 318.15 K, m1 = 1.379)?
Its refractive index is 1.35894 ± 0.00042.

And the refractive index ([1]; 318.15 K, m1 = 1.621)?
Its refractive index is 1.36342 ± 0.00042.

What about the refractive index ([1]; 318.15 K, m1 = 1.867) of the same compound?
Its refractive index is 1.3677 ± 0.00042.

And the refractive index ([1]; 318.15 K, m1 = 2.12)?
The refractive index was 1.37185 ± 0.00042.

And the refractive index ([1]; 318.15 K, m1 = 2.36)?
Its refractive index is 1.37586 ± 0.00042.

And the refractive index ([1]; 318.15 K, m1 = 2.592)?
The refractive index was 1.37944 ± 0.00042.

And the refractive index ([1]; 318.15 K, m1 = 2.859)?
The refractive index was 1.38352 ± 0.00042.

And the refractive index ([1]; 318.15 K, m1 = 3.087)?
The refractive index was 1.38662 ± 0.00042.

What about the refractive index ([1]; 318.15 K, m1 = 3.347) of the same compound?
The refractive index was 1.39026 ± 0.00042.

What about the refractive index ([1]; 318.15 K, m1 = 3.579) of the same compound?
Its refractive index is 1.39328 ± 0.00042.

And the refractive index ([1]; 318.15 K, m1 = 3.807)?
The refractive index was 1.39614 ± 0.00042.

What about the refractive index ([1]; 318.15 K, m1 = 3.998) of the same compound?
Its refractive index is 1.39817 ± 0.00042.

What does the source list for `O` [water]?
refractive index ([2]; 288.15 K): 1.33339 ± 0.00041; refractive index ([2]; 298.15 K): 1.33248 ± 0.00041; refractive index ([2]; 308.15 K): 1.33128 ± 0.00041; refractive index ([2]; 318.15 K): 1.32979 ± 0.00041

Which refractive index ([3]; 288.15 K) does the source give for `O` [water] + CCO here?
The refractive index was 1.33339 ± 0.00041.

What about the refractive index ([3]; 298.15 K) of the same compound?
The refractive index was 1.33248 ± 0.00041.

What about the refractive index ([3]; 308.15 K) of the same compound?
The refractive index was 1.33128 ± 0.00041.

What about the refractive index ([3]; 318.15 K) of the same compound?
The refractive index was 1.32979 ± 0.00041.

For `O` [water] + O=S(=O)([O-])[O-].[Cu+2], which refractive index ([1]; 288.15 K, m2 = 0) is on record?
Its refractive index is 1.33339 ± 0.00041.

And the refractive index ([1]; 298.15 K, m2 = 0)?
The refractive index was 1.33248 ± 0.00041.

And the refractive index ([1]; 308.15 K, m2 = 0)?
The refractive index was 1.33128 ± 0.00041.

And the refractive index ([1]; 318.15 K, m2 = 0)?
The refractive index was 1.32979 ± 0.00041.

What does the source list for `O` [water] + O=S(=O)([O-])[O-].[Li+].[Li+]?
refractive index ([1]; 288.15 K, m2 = 0): 1.33339 ± 0.00041; refractive index ([1]; 298.15 K, m2 = 0): 1.33248 ± 0.00041; refractive index ([1]; 308.15 K, m2 = 0): 1.33128 ± 0.00041; refractive index ([1]; 318.15 K, m2 = 0): 1.32979 ± 0.00041

For `O` [water] + O=S(=O)([O-])[O-].[Mg+2], which refractive index ([1]; 288.15 K, m2 = 0) is on record?
The refractive index was 1.33339 ± 0.00041.

And the refractive index ([1]; 298.15 K, m2 = 0)?
Its refractive index is 1.33248 ± 0.00041.

What about the refractive index ([1]; 308.15 K, m2 = 0) of the same compound?
Its refractive index is 1.33128 ± 0.00041.

What about the refractive index ([1]; 318.15 K, m2 = 0) of the same compound?
Its refractive index is 1.32979 ± 0.00041.
